Type in all cases: cell-based
Test [1] addresses T1, hNaV1.3 (Homo sapiens, UniProt Q9NY46).
T1 construct: host or cells: HEK293
The experiment in a line: Automated whole-cell patch-clamp (QPatch 16X), hNaV1.3. The conditions noted are these: for IC50: HEK293 cells expressing hNaV1.3 + β1 subunit, QPatch 16X, holding −80 mV, step to 0 mV, peptide incubated 2 min, 0.1% BSA, mean, SEM and n (3-12). A digest of the protocol:
(§1)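 HEK293 cells stably expressing the channel (human subtypes with β1 subunit), held at −80 mV; 2 min peptide pre-incubation, then 20 ms steps to 0 mV after a 200 ms −120 mV conditioning pulse. Extracellular pH 7.3 with 20 mM TEA-Cl, CsF-based pipette solution, 0.1% BSA; IC50 from four-parameter Hill fit.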

For test [2], the target named is T2, hNaV1.2 (Homo sapiens, UniProt Q99250).
T2 construct: host or cells: HEK293
The experiment in a line: Automated whole-cell patch-clamp (QPatch 16X), hNaV1.2. To be noted: for IC50: HEK293 cells expressing hNaV1.2 + β1 subunit, QPatch 16X, holding −80 mV, step to 0 mV, peptide incubated 2 min, 0.1% BSA, mean, SEM and n (2-7). A digest of the protocol:
as §1
(Patch clamp records ionic current or voltage across a cell membrane.)

In test [3] the target is T3, hNaV1.7 (Homo sapiens, UniProt Q15858).
T3 construct: host or cells: HEK293
The experiment in a line: Automated whole-cell patch-clamp (QPatch 16X), hNaV1.7. To be noted: for IC50: HEK293 cells expressing hNaV1.7 + β1 subunit, QPatch 16X, holding −80 mV, step to 0 mV, peptide incubated 2 min, 0.1% BSA, mean, SEM and n (3-9). A digest of the protocol: as §1

Each structure is given as a SMILES string. Bridge positions count the residues as written; N and C are the ends. Peptide text beside a SMILES is read from it.

T3 sequence (Q15858 whole entry): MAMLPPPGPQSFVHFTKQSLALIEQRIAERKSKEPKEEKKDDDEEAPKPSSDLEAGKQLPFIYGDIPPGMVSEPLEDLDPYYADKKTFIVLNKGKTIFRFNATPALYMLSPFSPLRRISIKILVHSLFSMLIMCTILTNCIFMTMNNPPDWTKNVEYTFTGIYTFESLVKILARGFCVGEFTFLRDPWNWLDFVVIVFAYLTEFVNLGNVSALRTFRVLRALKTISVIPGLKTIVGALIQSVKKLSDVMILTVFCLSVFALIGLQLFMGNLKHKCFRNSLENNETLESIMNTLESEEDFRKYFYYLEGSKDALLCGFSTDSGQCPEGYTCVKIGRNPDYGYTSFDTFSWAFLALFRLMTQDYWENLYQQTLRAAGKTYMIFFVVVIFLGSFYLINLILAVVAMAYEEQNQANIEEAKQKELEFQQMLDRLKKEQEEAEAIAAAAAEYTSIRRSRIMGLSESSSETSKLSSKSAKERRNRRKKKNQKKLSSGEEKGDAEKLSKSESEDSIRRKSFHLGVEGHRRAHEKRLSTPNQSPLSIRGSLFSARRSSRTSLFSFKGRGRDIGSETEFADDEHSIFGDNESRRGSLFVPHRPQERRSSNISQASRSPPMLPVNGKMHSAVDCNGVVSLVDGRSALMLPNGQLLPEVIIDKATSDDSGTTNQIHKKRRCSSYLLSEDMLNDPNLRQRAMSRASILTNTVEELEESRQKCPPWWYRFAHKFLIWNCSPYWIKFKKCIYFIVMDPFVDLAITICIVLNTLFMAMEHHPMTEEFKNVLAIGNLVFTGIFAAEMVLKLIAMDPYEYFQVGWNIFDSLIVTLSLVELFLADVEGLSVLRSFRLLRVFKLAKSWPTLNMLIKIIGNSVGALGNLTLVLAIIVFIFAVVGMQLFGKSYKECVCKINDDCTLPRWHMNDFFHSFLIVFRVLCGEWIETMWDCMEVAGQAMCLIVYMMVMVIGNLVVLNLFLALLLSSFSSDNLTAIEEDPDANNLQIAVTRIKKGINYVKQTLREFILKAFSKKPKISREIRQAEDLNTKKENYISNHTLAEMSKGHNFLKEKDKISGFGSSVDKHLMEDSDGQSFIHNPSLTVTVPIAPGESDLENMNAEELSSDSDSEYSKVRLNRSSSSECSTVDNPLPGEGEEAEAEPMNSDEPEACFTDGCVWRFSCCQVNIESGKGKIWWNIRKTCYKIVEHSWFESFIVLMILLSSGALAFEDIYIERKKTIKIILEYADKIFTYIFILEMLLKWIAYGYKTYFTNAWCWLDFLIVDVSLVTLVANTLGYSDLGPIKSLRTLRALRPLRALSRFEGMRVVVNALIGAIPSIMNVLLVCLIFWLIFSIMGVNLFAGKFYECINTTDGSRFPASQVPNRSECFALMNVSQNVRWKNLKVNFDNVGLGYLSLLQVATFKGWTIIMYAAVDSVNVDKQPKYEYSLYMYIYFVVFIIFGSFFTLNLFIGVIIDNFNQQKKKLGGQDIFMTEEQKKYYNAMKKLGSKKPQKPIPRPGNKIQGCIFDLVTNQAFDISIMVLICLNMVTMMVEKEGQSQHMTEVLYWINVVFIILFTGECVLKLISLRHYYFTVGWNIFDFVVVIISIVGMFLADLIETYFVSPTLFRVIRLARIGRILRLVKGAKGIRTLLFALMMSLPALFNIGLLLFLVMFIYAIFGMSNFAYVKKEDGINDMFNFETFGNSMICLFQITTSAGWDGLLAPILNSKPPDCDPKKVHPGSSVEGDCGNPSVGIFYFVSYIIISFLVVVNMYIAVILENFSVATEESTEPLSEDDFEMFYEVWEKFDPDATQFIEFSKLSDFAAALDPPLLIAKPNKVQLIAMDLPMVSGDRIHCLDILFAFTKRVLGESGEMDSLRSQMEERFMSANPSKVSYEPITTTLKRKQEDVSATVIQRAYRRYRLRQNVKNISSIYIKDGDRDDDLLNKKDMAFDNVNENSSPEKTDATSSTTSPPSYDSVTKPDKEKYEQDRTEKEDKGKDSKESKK
T3 sequence (Q07699 19-218, further chain): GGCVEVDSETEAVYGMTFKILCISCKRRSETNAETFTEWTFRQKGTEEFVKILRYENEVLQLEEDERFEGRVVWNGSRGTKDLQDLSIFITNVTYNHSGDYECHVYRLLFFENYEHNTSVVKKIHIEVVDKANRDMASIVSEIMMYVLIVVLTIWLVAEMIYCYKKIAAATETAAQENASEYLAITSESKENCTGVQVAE
T2 sequence (Q07699 19-218): as the sequence (Q07699 19-218, further chain) above
T2 sequence (Q99250 whole entry): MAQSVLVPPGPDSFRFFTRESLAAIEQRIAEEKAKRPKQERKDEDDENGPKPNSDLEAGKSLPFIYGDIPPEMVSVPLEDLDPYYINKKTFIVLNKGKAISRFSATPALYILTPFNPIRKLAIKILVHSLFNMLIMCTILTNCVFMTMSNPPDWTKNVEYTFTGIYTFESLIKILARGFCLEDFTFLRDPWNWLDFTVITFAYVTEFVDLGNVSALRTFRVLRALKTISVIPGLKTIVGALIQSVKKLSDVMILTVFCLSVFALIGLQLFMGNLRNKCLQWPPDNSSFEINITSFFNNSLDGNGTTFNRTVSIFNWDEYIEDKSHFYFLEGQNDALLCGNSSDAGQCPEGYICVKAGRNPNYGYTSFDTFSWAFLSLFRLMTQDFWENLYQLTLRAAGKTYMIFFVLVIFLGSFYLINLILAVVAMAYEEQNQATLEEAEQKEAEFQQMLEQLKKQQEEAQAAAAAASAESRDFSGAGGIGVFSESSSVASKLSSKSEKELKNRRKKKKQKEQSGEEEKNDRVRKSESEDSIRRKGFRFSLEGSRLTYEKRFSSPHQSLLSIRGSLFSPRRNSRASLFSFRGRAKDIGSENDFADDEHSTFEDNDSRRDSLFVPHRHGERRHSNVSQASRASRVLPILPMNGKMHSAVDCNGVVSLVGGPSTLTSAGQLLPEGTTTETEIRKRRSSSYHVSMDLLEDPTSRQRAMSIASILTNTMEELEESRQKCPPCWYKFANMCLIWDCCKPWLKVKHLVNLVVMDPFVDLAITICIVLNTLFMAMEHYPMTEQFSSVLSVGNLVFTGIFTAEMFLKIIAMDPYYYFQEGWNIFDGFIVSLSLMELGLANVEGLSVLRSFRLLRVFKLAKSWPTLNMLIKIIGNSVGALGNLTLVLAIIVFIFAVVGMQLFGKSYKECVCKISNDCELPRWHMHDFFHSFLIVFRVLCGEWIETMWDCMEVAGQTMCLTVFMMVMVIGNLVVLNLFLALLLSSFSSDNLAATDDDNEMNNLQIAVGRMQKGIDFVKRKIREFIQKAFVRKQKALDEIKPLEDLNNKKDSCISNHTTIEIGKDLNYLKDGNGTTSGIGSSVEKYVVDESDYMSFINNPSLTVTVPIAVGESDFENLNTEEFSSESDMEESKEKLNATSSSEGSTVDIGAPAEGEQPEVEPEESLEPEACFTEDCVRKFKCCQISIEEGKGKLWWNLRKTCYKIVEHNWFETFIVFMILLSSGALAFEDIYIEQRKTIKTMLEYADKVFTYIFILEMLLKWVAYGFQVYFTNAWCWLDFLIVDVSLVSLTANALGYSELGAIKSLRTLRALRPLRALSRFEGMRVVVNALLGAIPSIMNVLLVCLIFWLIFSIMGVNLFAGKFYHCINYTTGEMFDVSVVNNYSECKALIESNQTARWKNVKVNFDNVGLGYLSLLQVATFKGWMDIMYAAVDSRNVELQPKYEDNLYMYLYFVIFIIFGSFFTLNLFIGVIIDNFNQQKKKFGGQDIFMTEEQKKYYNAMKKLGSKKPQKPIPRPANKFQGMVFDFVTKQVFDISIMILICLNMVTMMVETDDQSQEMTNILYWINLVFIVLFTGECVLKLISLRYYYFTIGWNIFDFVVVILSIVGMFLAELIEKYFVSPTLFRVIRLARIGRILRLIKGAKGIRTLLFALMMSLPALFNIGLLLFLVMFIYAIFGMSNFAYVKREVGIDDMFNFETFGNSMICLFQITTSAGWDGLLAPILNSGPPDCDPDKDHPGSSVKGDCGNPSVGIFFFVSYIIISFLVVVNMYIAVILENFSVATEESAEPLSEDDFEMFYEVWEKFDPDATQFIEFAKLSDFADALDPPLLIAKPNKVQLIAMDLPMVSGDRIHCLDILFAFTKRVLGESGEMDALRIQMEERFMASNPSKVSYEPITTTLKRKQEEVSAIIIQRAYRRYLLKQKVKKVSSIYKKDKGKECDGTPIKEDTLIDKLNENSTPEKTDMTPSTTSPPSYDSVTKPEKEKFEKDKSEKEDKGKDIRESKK

In the case of `CC(C)C[C@H](NC(=O)[C@H](CC(=O)O)NC(=O)[C@H](Cc1ccc(O)cc1)NC(=O)[C@H](CCCNC(=N)N)NC(=O)[C@@H]1CSSC[C@@H]2NC(=O)[C@H](CCCCN)NC(=O)[C@H](CC(N)=O)NC(=O)[C@H](CC(N)=O)NC(=O)[C@H](CC(N)=O)NC(=O)[C@@H]3CCCN3C(=O)[C@H](CC(=O)O)NC(=O)[C@@H]3CSSC[C@H](NC(=O)[C@H](C(C)C)NC(=O)[C@H](Cc4ccc(O)cc4)NC(=O)CNC(=O)[C@H](CCC(=O)O)NC(=O)[C@H](CSSC[C@H](NC(=O)[C@H](CC(=O)O)NC(=O)CN)C(=O)N[C@@H](CC(C)C)C(=O)NCC(=O)N[C@@H](Cc4c[nH]c5ccccc45)C(=O)N[C@@H](Cc4ccccc4)C(=O)N[C@@H](CO)C(=O)NCC(=O)N3)NC2=O)C(=O)N[C@@H](Cc2c[nH]cn2)C(=O)N[C@@H](Cc2c[nH]c3ccccc23)C(=O)N[C@@H](CCCCN)C(=O)N[C@@H](Cc2ccc(O)cc2)C(=O)N2CCC[C@H]2C(=O)N[C@@H](Cc2ccccc2)C(=O)N1)C(=O)O` [W28F], the IC50 was over 3000 nM in test [1], over 3000 nM in test [2] and 544 nM in test [3].
In the case of `CC(C)C[C@H](NC(=O)[C@H](CC(=O)O)NC(=O)[C@H](Cc1ccc(O)cc1)NC(=O)[C@H](CCCNC(=N)N)NC(=O)[C@@H]1CSSC[C@@H]2NC(=O)[C@H](CCCCN)NC(=O)[C@H](CC(N)=O)NC(=O)[C@H](CC(N)=O)NC(=O)[C@H](CC(N)=O)NC(=O)[C@@H]3CCCN3C(=O)[C@H](CC(=O)O)NC(=O)[C@@H]3CSSC[C@H](NC(=O)[C@H](C(C)C)NC(=O)[C@H](Cc4ccc(O)cc4)NC(=O)CNC(=O)[C@H](CCC(=O)O)NC(=O)[C@H](CSSC[C@H](NC(=O)[C@H](CC(=O)O)NC(=O)CN)C(=O)N[C@@H](CC(C)C)C(=O)NCC(=O)N[C@@H](Cc4c[nH]c5ccccc45)C(=O)N[C@@H](Cc4ccccc4)C(=O)N[C@@H](CO)C(=O)NCC(=O)N3)NC2=O)C(=O)N[C@@H](Cc2c[nH]cn2)C(=O)N[C@@H](Cc2c[nH]c3ccccc23)C(=O)N[C@@H](CCCCN)C(=O)N[C@@H](Cc2ccc(O)cc2)C(=O)N2CCC[C@H]2C(=O)N[C@@H](CCCCN)C(=O)N1)C(=O)O` [W28K] (H-GDCLGWFSGCDPNNNKCCEGYVCHWKYPKCRYDL-OH; disulfide 3-18, 10-23, 17-30 (inferred); N-terminus and C-terminus assumed), the 50% inhibitory concentration (IC50) in test [1], in test [2] and in test [3] was over 3000 nM throughout.
`CC(C)C[C@H](NC(=O)[C@H](CC(=O)O)NC(=O)[C@H](Cc1ccc(O)cc1)NC(=O)[C@H](CCCNC(=N)N)NC(=O)[C@@H]1CSSC[C@@H]2NC(=O)[C@H](CCCCN)NC(=O)[C@H](CC(N)=O)NC(=O)[C@H](CC(N)=O)NC(=O)[C@H](CC(N)=O)NC(=O)[C@@H]3CCCN3C(=O)[C@H](CC(=O)O)NC(=O)[C@@H]3CSSC[C@H](NC(=O)[C@H](C(C)C)NC(=O)[C@H](C)NC(=O)CNC(=O)[C@H](CCC(=O)O)NC(=O)[C@H](CSSC[C@H](NC(=O)[C@H](CC(=O)O)NC(=O)CN)C(=O)N[C@@H](CC(C)C)C(=O)NCC(=O)N[C@@H](Cc4c[nH]c5ccccc45)C(=O)N[C@@H](Cc4ccccc4)C(=O)N[C@@H](CO)C(=O)NCC(=O)N3)NC2=O)C(=O)N[C@@H](Cc2c[nH]cn2)C(=O)N[C@@H](Cc2c[nH]c3ccccc23)C(=O)N[C@@H](CCCCN)C(=O)N[C@@H](Cc2ccc(O)cc2)C(=O)N2CCC[C@H]2C(=O)N[C@@H](Cc2c[nH]c3ccccc23)C(=O)N1)C(=O)O` [Y20A]: the 50% inhibitory concentration (IC50) in test [1] was over 3000 nM; in test [2], 1840 nM; in test [3], 1270 nM. In addition, the “Activity at hNaV1.3 (in words)” value in test [1] (alanine mutant vs rSsp1a) was “inactive”.
For the compound `CC(C)C[C@H](NC(=O)[C@H](CC(=O)O)NC(=O)[C@H](Cc1ccc(O)cc1)NC(=O)[C@H](CCCNC(=N)N)NC(=O)[C@@H]1CSSC[C@@H]2NC(=O)[C@H](CCCCN)NC(=O)[C@H](CC(N)=O)NC(=O)[C@H](CC(N)=O)NC(=O)[C@H](CC(N)=O)NC(=O)[C@@H]3CCCN3C(=O)[C@H](CC(=O)O)NC(=O)[C@@H]3CSSC[C@H](NC(=O)[C@H](C(C)C)NC(=O)[C@H](CC(C)C)NC(=O)CNC(=O)[C@H](CCC(=O)O)NC(=O)[C@H](CSSC[C@H](NC(=O)[C@H](CC(=O)O)NC(=O)CN)C(=O)N[C@@H](CC(C)C)C(=O)NCC(=O)N[C@@H](Cc4c[nH]c5ccccc45)C(=O)N[C@@H](Cc4ccccc4)C(=O)N[C@@H](CO)C(=O)NCC(=O)N3)NC2=O)C(=O)N[C@@H](Cc2c[nH]cn2)C(=O)N[C@@H](Cc2c[nH]c3ccccc23)C(=O)N[C@@H](CCCCN)C(=O)N[C@@H](Cc2ccc(O)cc2)C(=O)N2CCC[C@H]2C(=O)N[C@@H](Cc2c[nH]c3ccccc23)C(=O)N1)C(=O)O` [Y20L], the IC50 in test [1] amounted to 476 nM; in test [2] it was 340 nM; in test [3], 288 nM.
`CC(C)C[C@H](NC(=O)[C@H](CC(=O)O)NC(=O)[C@H](Cc1ccc(O)cc1)NC(=O)[C@H](CCCNC(=N)N)NC(=O)[C@@H]1CSSC[C@@H]2NC(=O)[C@H](CCCCN)NC(=O)[C@H](CC(N)=O)NC(=O)[C@H](CC(N)=O)NC(=O)[C@H](CC(N)=O)NC(=O)[C@@H]3CCCN3C(=O)[C@H](CC(=O)O)NC(=O)[C@@H]3CSSC[C@H](NC(=O)[C@H](C(C)C)NC(=O)[C@H](Cc4ccc(O)cc4)NC(=O)CNC(=O)[C@H](CCC(=O)O)NC(=O)[C@H](CSSC[C@H](NC(=O)[C@H](CC(=O)O)NC(=O)CN)C(=O)N[C@@H](CC(C)C)C(=O)NCC(=O)N[C@@H](Cc4c[nH]c5ccccc45)C(=O)N[C@@H](Cc4ccccc4)C(=O)N[C@@H](CO)C(=O)NCC(=O)N3)NC2=O)C(=O)N[C@@H](Cc2c[nH]cn2)C(=O)N[C@@H](Cc2c[nH]c3ccccc23)C(=O)N[C@@H](CCCCN)C(=O)N[C@@H](C)C(=O)N2CCC[C@H]2C(=O)N[C@@H](Cc2c[nH]c3ccccc23)C(=O)N1)C(=O)O` [Y26A] (H-GDCLGWFSGCDPNNNKCCEGYVCHWKAPWCRYDL-OH; disulfide 3-18, 10-23, 17-30 (inferred); N-terminus and C-terminus assumed): the half-inhibitory concentration (IC50) in test [1], in test [2] and in test [3] was over 1000 nM in each case. In addition, the “Loss (reduction) in potency vs rSsp1a at hNaV1.2” value in test [2] (relative to wild type rSsp1a) was at least 10 fold. In test [3] (relative to wild type rSsp1a), the “Loss (reduction) in potency vs rSsp1a at hNaV1.7” value is listed as at least 10 fold.
For `CC(C)C[C@H](NC(=O)[C@H](CC(=O)O)NC(=O)[C@H](Cc1ccc(O)cc1)NC(=O)[C@H](CCCNC(=N)N)NC(=O)[C@@H]1CSSC[C@@H]2NC(=O)[C@H](CCCCN)NC(=O)[C@H](CC(N)=O)NC(=O)[C@H](CC(N)=O)NC(=O)[C@H](CC(N)=O)NC(=O)[C@@H]3CCCN3C(=O)[C@H](CC(=O)O)NC(=O)[C@@H]3CSSC[C@H](NC(=O)[C@H](C(C)C)NC(=O)[C@H](Cc4ccc(O)cc4)NC(=O)CNC(=O)[C@H](CCC(=O)O)NC(=O)[C@H](CSSC[C@H](NC(=O)[C@H](CC(=O)O)NC(=O)CN)C(=O)N[C@@H](CC(C)C)C(=O)NCC(=O)N[C@@H](Cc4c[nH]c5ccccc45)C(=O)N[C@@H](Cc4ccccc4)C(=O)N[C@@H](CO)C(=O)NCC(=O)N3)NC2=O)C(=O)N[C@@H](Cc2c[nH]cn2)C(=O)N[C@@H](Cc2c[nH]c3ccccc23)C(=O)N[C@@H](CCCCN)C(=O)N[C@@H](Cc2c[nH]cn2)C(=O)N2CCC[C@H]2C(=O)N[C@@H](Cc2c[nH]c3ccccc23)C(=O)N1)C(=O)O` [Y26H], the IC50 in test [1] came out at 484 nM; in test [2], 369 nM; in test [3] it was 244 nM.
For `CC(C)C[C@H](NC(=O)[C@H](CC(=O)O)NC(=O)[C@H](C)NC(=O)[C@H](CCCNC(=N)N)NC(=O)[C@@H]1CSSC[C@@H]2NC(=O)[C@H](CCCCN)NC(=O)[C@H](CC(N)=O)NC(=O)[C@H](CC(N)=O)NC(=O)[C@H](CC(N)=O)NC(=O)[C@@H]3CCCN3C(=O)[C@H](CC(=O)O)NC(=O)[C@@H]3CSSC[C@H](NC(=O)[C@H](C(C)C)NC(=O)[C@H](Cc4ccc(O)cc4)NC(=O)CNC(=O)[C@H](CCC(=O)O)NC(=O)[C@H](CSSC[C@H](NC(=O)[C@H](CC(=O)O)NC(=O)CN)C(=O)N[C@@H](CC(C)C)C(=O)NCC(=O)N[C@@H](Cc4c[nH]c5ccccc45)C(=O)N[C@@H](Cc4ccccc4)C(=O)N[C@@H](CO)C(=O)NCC(=O)N3)NC2=O)C(=O)N[C@@H](Cc2c[nH]cn2)C(=O)N[C@@H](Cc2c[nH]c3ccccc23)C(=O)N[C@@H](CCCCN)C(=O)N[C@@H](Cc2ccc(O)cc2)C(=O)N2CCC[C@H]2C(=O)N[C@@H](Cc2c[nH]c3ccccc23)C(=O)N1)C(=O)O` [Y31A] the same measures were over 1000 nM, 633 nM and 254 nM.
Turning to `CC(C)C[C@H](NC(=O)[C@H](CC(=O)O)NC(=O)[C@@H](NC(=O)[C@H](CCCNC(=N)N)NC(=O)[C@@H]1CSSC[C@@H]2NC(=O)[C@H](CCCCN)NC(=O)[C@H](CC(N)=O)NC(=O)[C@H](CC(N)=O)NC(=O)[C@H](CC(N)=O)NC(=O)[C@@H]3CCCN3C(=O)[C@H](CC(=O)O)NC(=O)[C@@H]3CSSC[C@H](NC(=O)[C@H](C(C)C)NC(=O)[C@H](Cc4ccc(O)cc4)NC(=O)CNC(=O)[C@H](CCC(=O)O)NC(=O)[C@H](CSSC[C@H](NC(=O)[C@H](CC(=O)O)NC(=O)CN)C(=O)N[C@@H](CC(C)C)C(=O)NCC(=O)N[C@@H](Cc4c[nH]c5ccccc45)C(=O)N[C@@H](Cc4ccccc4)C(=O)N[C@@H](CO)C(=O)NCC(=O)N3)NC2=O)C(=O)N[C@@H](Cc2c[nH]cn2)C(=O)N[C@@H](Cc2c[nH]c3ccccc23)C(=O)N[C@@H](CCCCN)C(=O)N[C@@H](Cc2ccc(O)cc2)C(=O)N2CCC[C@H]2C(=O)N[C@@H](Cc2c[nH]c3ccccc23)C(=O)N1)[C@@H](C)O)C(=O)O` [Y31T], the IC50 in test [1] was over 3000 nM; in test [2] it was 874 nM; in test [3] it was 545 nM.

Broadly, the IC50 is the concentration that inhibits the measured activity by half.

The values are drawn from article PMC10682951, “Structure-function and rational design of a spider toxin Ssp1a at human voltage-gated sodium channel subtypes” (Frontiers in Pharmacology, 2023).
